Experimental data from patent US6242445A, “Benzimidazole derivative” (Kureha Chemical Industry Co., Ltd., priority 1998, dated 2001).

Tests used:
ICR female mice = assay: Acute toxicity (single oral administration); format: in vivo
Experimental: Acute toxicity was evaluated in this Example. As a compound to be examined, 2-ethoxy-1-[[4'-(2"-N,N-dimethylamino-ethoxycarbonyl)phenyl]methyl]-1H-benzimidazole-6-carboxylic acid morpholide (Compound No. 13) prepared in Example 6 was used.
Five-week-old ICR female mice (5 mice per group) were bredfor acclimation for a week. Then, Compound No. 13 was dissolved or suspended in 0.5% methylcellulose aqueous solution, and orally administered to the mice in a single dosage (500 mg/kg). […] Further, as to Compound No. 55, Compound No. 57, Compound No. 59, and Compound No. 65 prepared in Examples 26, 28, 31, and 23, respectively, acute toxicity was also evaluated.

[1] = tested on: kidney disease model rats; assay: Action to lower blood pressure in kidney disease model rats; format: in vivo, Sprague-Dawley female rats; details: 20 mg/kg oral; for action of lowering the blood pressure: in comparison with the control group; for Blood pressure: systolic, tail cuff, average, two days after administration, control 210
Experimental: (§1) In this Example, an action to lower blood pressure was evaluated. That is, each of 2-ethoxy-1-[[4'- (2'-N,N-dimethylamino-ethoxycarbonyl) phenyl]methyl]-1H-benzimidazole-6-carboxylic acid morpholide (Compound No. 13) prepared in Example 6, 2-ethoxy-1-[[4'-(2"-morpholinoethoxycarbonyl)-phenyl]methyl]-1H-benzimidazole-6-carboxylic acid piperidinamide (Compound No. 57) prepared in Example 28, or the reference substance was forcibly orally administered to kidney disease model rats, and the action of lowering the blood pressure was observed. The kidney disease model rats were prepared by a ligature of branches of renal artery in accordance with a conventional method. Namely, the left hilum renalis of Sprague-Dawley female rats was exposed under anesthesia, and one of four secondary branches of the renal artery was left unligated, while the remaining three branches were ligated, respectively. After a week, the hilum renalis (artery, vein, and ureter) of the right kidney were further ligated to thereby prepare rats whose renal function was lowered to approximately 1/8 of the normal function. Each group consisted of eight rats. The drugs to be tested (20 mg/kg) were administered to each administering group, and only water was administered to a control group. Two days after the administration, the systolic blood pressure was measured by the tail cuff method using a blood pressure measuring apparatus (UR^5000; Ueda).

[2] = tested on: kidney disease model rats; assay: Action to kidney diseases, renal function indicatory values; format: in vivo, Sprague-Dawley female rats; details: for Creatinine clearance / blood urea nitrogen value / serum creatinine value / Creatinine / Blood urea nitrogen: 20 mg/kg/day, two weeks; for Creatinine / Blood urea nitrogen: serum; for Creatinine: control 2.0; for Blood urea nitrogen: control 100; for effects on renal function compared with reference substance: vs DuP753
Experimental: The kidney disease model rats were prepared by a ligature of branches of renal artery in accordance with a conventional method. Namely, the left hilum renalis of Sprague-Dawley female rats was exposed under anesthesia, and one of four secondary branches of the renal artery was left unligated, while the remaining three branches were ligated, respectively. After a week, the hilum renalis (artery, vein, and ureter) of the right kidney were further ligated to thereby prepare rats whose renal function was lowered to approximately 1/8 of the normal function. Each group consisted of eight rats. The drugs to be tested (20 mg/kg) were administered to each administering group, and only water was administered to a control group. Two days after the administration, the systolic blood pressure was measured by the tail cuff method using a blood pressure measuring apparatus (UR^5000; Ueda).
In this Example, an action to kidney diseases was evaluated on the basis of a renal function indicatory value.
Fifteen groups (8 rats per group) were prepared in a manner such that there was no major difference between the groups in the serum creatinine value and the blood urea nitrogen value indicating renal function. The rats in each group were allowed to freely take up food and water. […] To the rats in the control group, only water was forcibly orally administered every day. After two weeks, 0.2 ml of blood was collected from the carotid artery of the rats under anesthesia, and centrifuged to obtain serum. Using 25 μl of the serum, the serum creatinine (Scr) was measured by a creatinine analytical instrument (Beckman). Using 10 μl of the serum, the blood urea nitrogen (BUN) was measured by a BUN analytical instrument (Beckman). The creatinine clearance was evaluated as follows:
After the serum creatinine measurement, rats were placed in urinary metabolic cages for 24 hours to collect urine. A urinary creatine concentration (Ucr) was measured by a creatinine analytical instrument, and a total volume of urination (Uvol) was also measured. The creatinine clearance (CCr) was calculated by the following formula: [formula]
In the above formula, the unit of "Ucr" and "Scr" is "mg/ml" and the unit of "Uvol" is "ml".

[3] = tested on: kidney disease model rats; assay: Survival time of kidney diseased animals; format: in vivo, Sprague-Dawley female rats; details: for survival time / Average survival time: 20 mg/kg/day; for Average survival time: observation period eight weeks (upper limit), control 5.0; for effect on survival compared with reference substance: vs DuP753
Experimental: as §1
In this Example, an action to survival time of kidney diseased animals was evaluated. As compounds to be examined, 2-ethoxy-1-[[4'-(2"-N,N-dimethylamino-ethoxycarbonyl)-phenyl]methyl]-1H-benzimidazole-6-carboxylic acid morpholide (Compound No. 13) prepared in Example 6, and 2-ethoxy-1-[[4'-(2"-morpholinoethoxycarbonyl)phenyl]methyl]-1H-benzimidazole-6-carboxylic acid piperidinamide (Compound No. 57) prepared in Example 28 were used.
The kidney disease model rats were prepared as in Example 38. Fifteen groups (8 rats per group) were prepared in a manner such that there was no major difference between the groups in the serum creatinine value and the blood urea nitrogen value indicating renal function. The rats in each group were allowed to freely take up food and water. […] To the rats in the control group, only water was forcibly orally administered every day. If kidney diseases are aggravated, the rat will die of uremia. Thus, the survival time was observed as a comprehensive indication of the improvement of the effect on the kidney diseases. The observation period was eight weeks. Thus if all rats survived, the average survival time is eight weeks, and is an upper limit.

Row | SMILES | Number of deaths/number of survivals (ICR female mice; 500 mg/kg single oral, deaths observed for 6 days) | action of lowering the blood pressure [1] | Blood pressure [1] | Creatinine clearance ([2]; control 0.22) | Creatinine clearance ([2]; vs control) | blood urea nitrogen value ([2]; vs control) | serum creatinine value ([2]; vs control) | Creatinine [2] | Blood urea nitrogen [2] | effects on renal function compared with reference substance [2] | survival time [3] | Average survival time [3] | effect on survival compared with reference substance [3] | Number of deaths/number of survivals (ICR female mice; mouse, in vivo)
1 | CCOc1nc2ccc(C(=O)N3CCOCC3)cc2n1Cc1ccc(C(=O)OCCN(C)C)cc1 [Compound No. 13, 2-ethoxy-1-[[4'-(2"-N,N-dimethylaminoethoxycarbonyl)phenyl]methyl]-1H-benzimidazole-6-carboxylic acid morpholide] | 0/5 | an influence on the blood pressure was not substantially observed | 208 mmHg | 0.35 mL/min | clearly improved | clearly became lower values | clearly became lower values | 1.5 mg/dL | 75 mg/dL | comparable to those of the reference substance | clearly prolonged the survival time | 7.5 weeks | comparable or superior to that of the reference substance | –
2 | CCOc1nc2ccc(C(=O)N3CCCCC3)cc2n1Cc1ccc(C(=O)OCCN2CCOCC2)cc1 [Compound No. 57, 2-ethoxy-1-[[4'-(2"-morpholinoethoxycarbonyl)phenyl]methyl]-1H-benzimidazole-6-carboxylic acid piperidinamide] | – | an influence on the blood pressure was not substantially observed | 205 mmHg | 0.33 mL/min | clearly improved | clearly became lower values | clearly became lower values | 1.5 mg/dL | 72 mg/dL | comparable to those of the reference substance | clearly prolonged the survival time | 7.5 weeks | comparable or superior to that of the reference substance | 0/5
